This is an account of results in patent publication US8012983B2, “Substituted triazolopyrazines useful for the treatment of degenerative and inflammatory diseases” (Galapagos NV, priority 2008, dated 2011).

One data set deals with T1, MAPKAPK5 (Homo sapiens, UniProt Q8IW41).
T1 sequence (Q8IW41 1-471 isoform Q8IW41-2): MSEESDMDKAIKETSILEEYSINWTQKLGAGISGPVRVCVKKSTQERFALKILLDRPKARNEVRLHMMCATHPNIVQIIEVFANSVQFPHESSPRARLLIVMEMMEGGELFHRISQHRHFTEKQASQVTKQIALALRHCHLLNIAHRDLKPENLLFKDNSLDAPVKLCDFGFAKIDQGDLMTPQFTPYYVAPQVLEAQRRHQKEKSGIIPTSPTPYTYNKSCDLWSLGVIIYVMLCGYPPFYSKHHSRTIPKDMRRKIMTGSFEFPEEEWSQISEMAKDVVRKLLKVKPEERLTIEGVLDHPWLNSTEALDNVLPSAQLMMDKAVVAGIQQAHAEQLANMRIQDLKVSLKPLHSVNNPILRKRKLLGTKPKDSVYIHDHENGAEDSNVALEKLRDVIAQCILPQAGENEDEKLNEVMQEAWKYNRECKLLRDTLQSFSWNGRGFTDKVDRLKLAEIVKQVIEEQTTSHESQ
Put plainly: MAPKAP-K5 FlashPlate kinase assay. The data set is classed as biochemical. Particulars: 0.6 μM ATP, 30 minutes, room temperature. The procedure: MAPKAP-K5 reactions are performed in FlashPlate format using 0.1 or 0.2 μCi 33P-ATP; 0.6 μM ATP; 1 mU MAPKAP-K5; 3 μM MAPKAP-K5 peptide substrate, incubated at room temperature for 30 minutes.
The MAPKAP-K5 kinase reaction is performed in a 384 well polypropylene plate (Matrix Technologies) and then transferred to a streptavidin-coated 384 well flashplate (Perkin-Elmer). To wells containing 2 μL test compound or standard inhibitor, 13 μL Enzyme mix or diluent are added using a Hydra (Robbins Scientific). Reactions are started by addition of 10 μL of [2.5×] substrate cocktail using a Multidrop (Thermo-Labsystems), to give final concentrations in the assay of: • 1 mU MAPKAP-K5 • 3 μM MAPKAP-K5 peptide substrate • 0.6 μM ATP • 0.004 μCi [33P]-γ-ATP/μL • 1× reaction buffer
Plates are incubated at room temperature for 30 minutes. Reactions are terminated by the addition of 25 μL EDTA (50 mM) to each well using a Micro-fill (Biotek). Reactions are transferred to a streptavidin-coated flashplate using a Zymark robotic system. Plates are incubated for 60 minutes at room temperature. All wells are washed 3 times with 100 μl phosphate buffered saline using a Tecan plate washer. Radioactivity is determined by scintillation counting of the flashplate (empty wells) on a Packard TopCount.
Enzyme Mix: • Enzyme • 50 mM Tris Hcl (pH 7.5) • 0.1 mM EGTA • 2 mM DTT • 1 mg/mL BSA
Reaction Buffer: • 50 mM Tris Hcl (pH 7.5) • 0.1 mM EGTA • 10 mM Magnesium acetate • 2 mM DTT

Data set [1] is described as follows: Tolerability of compounds in healthy mice (body weight). The following applies: 100 mg/kg/d, po, up to two weeks, DBA/1J mice, FIG. 6A. The data set is classed as in vivo. The procedure:
This protocol is designed to assess the tolerability of the compounds of the invention in healthy DBA/1J mice to determine the “therapeutic window” as defined by the dosing range between efficacious (mouse therapeutic Collagen-Induced Arthritis model) and toxic doses.
Compounds are prepared for a dosing regimen of 100 mg/kg/d, po, free base, in a standard volume of injection of 0.1 mL/10 g of mice (equivalent to 10 mg/1 mL). For solution preparations, compounds were dissolved in 0.5% methyl-cellulose and 1% DMSO, once a week.
Groups are randomized based on body weight and treated for up to two weeks. Each group contained 5 mice and received either test compound at 100 mg/kg, a comparison compound at 100 mg/kg/d (Compound A) or vehicle on a daily basis in a dosing volume of 200 μL per mouse.
Potential drug toxicity is monitored by observation every day and by recording body weights three times a week for weight loss. All statistical analyses were performed using Student's t test.
To assess the general tolerability of the treatments, the total body weight is followed throughout the course of the study.

As to `CC(C)N1C[C@@H]2C[C@H]1CN2c1ccc(Nc2ncc(-c3coc(C(N)=O)c3)n3ncnc23)cc1` [Compound 2, 4-{8-[4-((1S,4S)-5-Isopropyl-2,5-diaza-bicyclo[2.2.1]hept-2-yl)-phenylamino]-[1,2,4]triazolo[1,5-a]pyrazin-5-yl}-furan-2-carboxamide], the IC50 at MAPKAPK5 lay within 0.01 to 100 nM. In data set [1], the “General tolerability: total body weight compared to the vehicle” value is reported as “no statistically significant difference”.
